Data from publication PMC2792609, “Effect of methomyl on hepatic mixed function oxidases in rats” (Indian Journal of Pharmacology, 2008).
Like-named read-outs stand apart in the source and are kept apart here.

What was measured:
microsomal protein = assay type: in vivo, rat; conditions: for decrease in hepatic microsomal protein content: 3 days, vs control
Procedure: (§1) Adult male rats (weighing 200-230 g) were divided into four groups of six animals each. Group 1 received an equivalent amount of saline and served as control. Animals from group 2, 3, and 4 were given methomyl 1, 2, and 4 mg/kg body weight i.p. respectively, between 8: 00 a.m. and 9:00 a.m., for three consecutive days. In the second set of experiments, adult male rats were divided into four groups. Animals from group 2, 3, and 4 were injected with 4 mg/kg body weight methomyl for one, three, and five successive days. The volume injected into the rats of body weight 200 g was 1 ml. In another experiment, adult female rats and old male rats (weighing 350-450 g, 8 months old) were divided into two groups of six animals each. Group 2 of each category received methomyl (4 mg/kg body weight, i.p., for three successive days), and group 1 of each category received an equivalent amount of saline and served as the control group.
(§2) The rats were sacrificed by cervical dislocation, 24 hours after the last dose. Their livers were perfused in situ with ice cold 1.15% KCl containing 0.05 mM EDTA, rapidly excised, blotted dry, weighed, minced and homogenized with two volumes of ice cold 0.25 M sucrose solution, in a Potter-Elvehjem type homogenizer. The homogenate was centrifuged at 10,000 × g for 10 min, in a refrigerated centrifuge (REMI C-24). The microsomes were isolated by the procedure described by of Cinti et al.[4] The microsomal pellet was suspended in phosphate buffer (0.1 M, pH 7.4) and the suspension was used for the microsomal enzyme assays. Microsomal protein content was measured by the Biuret method, using bovine serum albumin as the standard.[5]

cytochrome b5 = experiment: Hepatic microsomal cytochrome b5 level; assay type: in vivo, rat
Procedure: as §1, §2
(§3) The microsomal electron transport components (cytochrome P450 and cytochrome b5) were determined using Hitachi UV-Visible double beam recording spectrophotometer, by the procedure of Omura and Sato.[67] Cytochrome c reductase activity was determined using the method recommended by Masters et al.[8] Aminopyrine N-demethylase activity was assayed according to the procedure described by Schenkman et al.[9] Formaldehyde liberated during N-demethylation was estimated by the procedure described by Nash.[10] Aniline hydroxylase assay was performed using the procedure reported by Govindwar and Dalvi.[11]

cytochrome P450 = experiment: Hepatic microsomal cytochrome P450 level; assay type: in vivo, rat; conditions: for decrease in cytochrome P450 content: 3 days
Procedure: as §1, §2, §3

Cytochrome c reductase = experiment: Hepatic microsomal cytochrome c reductase activity; assay type: in vivo, rat
Procedure: as §1, §2, §3

Alkaline phosphatase = experiment: Serum alkaline phosphatase activity; assay type: in vivo, rat; conditions: for increase in serum alkaline phosphatase activity: 3 days
Procedure: as §1, with “Group 2 of each category received methomyl (4 mg/kg body weight, i.p., for three successive days), and group 1 of each category received an equivalent amount of saline and served as the control group.” left out
Alanine aminotransferase and aspartate aminotransferase activity was measured using the Reitman and Frankel[12] method. Alkaline phosphatase activity was measured using Span diagnostic kits.[13] Cholinesterase activity was measured using the kinetic test method of Knedel et al.[14]

[1] = system: aspartate aminotransferase (SGOT); experiment: Serum aspartate aminotransferase (SGOT) activity; assay type: in vivo, rat; conditions: female rats; for SGOT: for 3 days
[2] = system: alanine aminotransferase (SGPT); experiment: Serum alanine aminotransferase (SGPT) activity; assay type: in vivo, rat; conditions: female rats; for SGPT: for 3 days
Serum cholinesterase = biological target: T1, Serum cholinesterase (Rattus norvegicus, UniProt Q9JKC1); experiment: Serum cholinesterase activity; assay type: in vivo; conditions: female rats; for Serum cholinesterase: for 3 days; for depression of acetyl cholinesterase activity: 3 days
T1 construct: from tissue; host or cells: rat serum

red cell ChE = conditions: methomyl aerosol, male rats, repeated inhalation; cited from earlier work
[3] = classification; cited from earlier work
[4] = adult female rats, 4 mg/kg body weight, i.p., three days
[5] = adult male rats, 1 mg/kg i.p., for 3 days
[6] = adult male rats, 2 mg/kg i.p., for 3 days
[7] = adult male rats, 4 mg/kg i.p., for 3 days
[8] = adult male rats, 4 mg/kg i.p., one, three and five days
[9] = adult rats, 4 mg/kg i.p., 1 day of treatment
[10] = adult rats, 4 mg/kg i.p., 3 days of treatment
[11] = adult rats, 4 mg/kg i.p., 5 days of treatment
[12] = old male rats, 4 mg/kg body weight, i.p., three days
[13] = adult female rat, 4 mg/kg i.p., three days, vs control
[14] = old male rat, 4 mg/kg i.p., three days, vs control

T1 sequence (Q9JKC1 24-597): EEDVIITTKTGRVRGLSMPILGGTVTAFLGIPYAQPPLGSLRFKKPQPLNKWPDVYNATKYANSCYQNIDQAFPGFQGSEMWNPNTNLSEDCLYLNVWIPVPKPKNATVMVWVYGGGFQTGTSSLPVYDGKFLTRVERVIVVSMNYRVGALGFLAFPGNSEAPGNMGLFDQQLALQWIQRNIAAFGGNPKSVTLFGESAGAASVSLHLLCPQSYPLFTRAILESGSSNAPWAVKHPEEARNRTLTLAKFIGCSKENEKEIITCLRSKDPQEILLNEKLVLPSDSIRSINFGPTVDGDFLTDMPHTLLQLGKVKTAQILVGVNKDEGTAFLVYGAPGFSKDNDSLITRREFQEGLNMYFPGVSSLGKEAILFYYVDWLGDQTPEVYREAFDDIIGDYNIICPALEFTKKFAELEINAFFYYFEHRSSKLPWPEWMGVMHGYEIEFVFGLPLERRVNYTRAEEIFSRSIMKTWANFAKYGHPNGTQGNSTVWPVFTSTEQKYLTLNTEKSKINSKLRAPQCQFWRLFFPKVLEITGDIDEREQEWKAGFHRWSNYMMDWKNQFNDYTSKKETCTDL

## CNC(=O)ON=C(C)SC [methomyl, S-methyl-N-(methyl carbomyl)-thioacetimidate]
Microsomal protein; [4]
  Microsomal protein: 10.90 mg/g liver
Microsomal protein; adult male rats, 1 mg/kg i.p.
  decrease in hepatic microsomal protein content: 28%
Microsomal protein; [5]
  Microsomal protein: 13.53 mg/g liver
Microsomal protein; adult male rats, 2 mg/kg i.p.
  decrease in hepatic microsomal protein content: 31%
Microsomal protein; [6]
  Microsomal protein: 12.83 mg/g liver
Microsomal protein; adult male rats, 4 mg/kg i.p.
  decrease in hepatic microsomal protein content: 19%
Microsomal protein; [7]
  Microsomal protein: 15.10 mg/g liver
Microsomal protein; [8]
  change in microsomal protein: No significant change
Microsomal protein; [9]
  Microsomal protein: 15.77 mg/g liver
Microsomal protein; [10]
  Microsomal protein: 16.00 mg/g liver
Microsomal protein; [11]
  Microsomal protein: 12.20 mg/g liver
Microsomal protein; [12]
  Microsomal protein: 18.80 mg/g liver
Cytochrome b5; [13]
  decrease in the level of cytochrome b5: 21%
Cytochrome b5; [4]
  Cytochrome b5: 0.15 nmole/mg protein
Cytochrome b5; [5]
  Cytochrome b5: 0.16 nmole/mg protein
Cytochrome b5; [6]
  Cytochrome b5: 0.20 nmole/mg protein
Cytochrome b5; [7]
  Cytochrome b5: 0.19 nmole/mg protein
Cytochrome b5; [8]
  change in cytochrome b5: No significant change
Cytochrome b5; adult male rats, all the three doses (1, 2 and 4 mg/kg i.p., 3 days)
  change in cytochrome b5: No significant change
Cytochrome b5; [9]
  Cytochrome b5: 0.25 nmole/mg protein
Cytochrome b5; [10]
  Cytochrome b5: 0.29 nmole/mg protein
Cytochrome b5; [11]
  Cytochrome b5: 0.28 nmole/mg protein
Cytochrome b5; [14]
  decrease in cytochrome b5: 51%
Cytochrome b5; [12]
  Cytochrome b5: 0.20 nmole/mg protein
Cytochrome P450; [4]
  Cytochrome P450: 0.21 nmole/mg protein
Cytochrome P450; adult male rats, 1 mg/kg i.p., vs control
  decrease in cytochrome P450 content: 34%
Cytochrome P450; [5]
  Cytochrome P450: 0.27 nmole/mg protein
Cytochrome P450; adult male rats, 2 mg/kg i.p., vs control
  decrease in cytochrome P450 content: 34%
Cytochrome P450; [6]
  Cytochrome P450: 0.27 nmole/mg protein
Cytochrome P450; adult male rats, 4 mg/kg i.p., vs control
  decrease in cytochrome P450 content: 19%
Cytochrome P450; adult male rats, 4 mg/kg i.p., five days, vs control
  decrease in the level of cytochrome P450: 37%
Cytochrome P450; [7]
  Cytochrome P450: 0.33 nmole/mg protein
Cytochrome P450; adult male rats, 4 mg/kg i.p., one day, vs control
  decrease in the level of cytochrome P450: 37%
Cytochrome P450; adult male rats, 4 mg/kg i.p., three days, vs control
  decrease in the level of cytochrome P450: 42%
Cytochrome P450; [9]
  Cytochrome P450: 0.30 nmole/mg protein
Cytochrome P450; [10]
  Cytochrome P450: 0.28 nmole/mg protein
Cytochrome P450; [11]
  Cytochrome P450: 0.30 nmole/mg protein
Cytochrome P450; [14]
  decrease in cytochrome P450: 43%
Cytochrome P450; [12]
  Cytochrome P450: 0.20 nmole/mg protein
Cytochrome c reductase; [13]
  decrease in the activity of cytochrome c reductase: 42%
Cytochrome c reductase; [4]
  Cytochrome c reductase: 23.07 nmole of cytochrome c reduced/min/mg microsomal protein
Cytochrome c reductase; [5]
  Cytochrome c reductase: 35.73 nmole of cytochrome c reduced/min/mg microsomal protein
Cytochrome c reductase; [6]
  Cytochrome c reductase: 32.80 nmole of cytochrome c reduced/min/mg microsomal protein
Cytochrome c reductase; adult male rats, 4 mg/kg i.p., 3 days, vs control
  increase in cytochrome c reductase activity: 14%
Cytochrome c reductase; [7]
  Cytochrome c reductase: 36.93 nmole of cytochrome c reduced/min/mg microsomal protein
Cytochrome c reductase; [8]
  change in the activity of cytochrome c reductase: No significant change
Cytochrome c reductase; [9]
  Cytochrome c reductase: 31.3 nmole of cytochrome c reduced/min/mg microsomal protein
Cytochrome c reductase; [10]
  Cytochrome c reductase: 26.7 nmole of cytochrome c reduced/min/mg microsomal protein
Cytochrome c reductase; [11]
  Cytochrome c reductase: 24.2 nmole of cytochrome c reduced/min/mg microsomal protein
Cytochrome c reductase; [14]
  decrease in cytochrome c reductase: 7%
Cytochrome c reductase; [12]
  Cytochrome c reductase: 33.30 nmole of cytochrome c reduced/min/mg microsomal protein
Alkaline phosphatase; female rats, 1 mg/kg body weight i.p., for 3 days
  Alkaline phosphatase: 19.0 KA units
Alkaline phosphatase; female rats, 1 mg/kg i.p.
  increase in serum alkaline phosphatase activity: 33%
Alkaline phosphatase; female rats, 2 mg/kg body weight i.p., for 3 days
  Alkaline phosphatase: 23.0 KA units
Alkaline phosphatase; female rats, 2 mg/kg i.p.
  increase in serum alkaline phosphatase activity: 61%
Alkaline phosphatase; female rats, 4 mg/kg body weight i.p., for 3 days
  Alkaline phosphatase: 26.7 KA units
Alkaline phosphatase; female rats, 4 mg/kg i.p.
  increase in serum alkaline phosphatase activity: 87%
Alkaline phosphatase; male rats, 1 mg/kg body weight i.p., for three days
  Alkaline phosphatase: 23.4 KA units
Alkaline phosphatase; male rats, 1 mg/kg i.p.
  increase in serum alkaline phosphatase activity: 14%
Alkaline phosphatase; male rats, 2 mg/kg body weight i.p., for three days
  Alkaline phosphatase: 26.4 KA units
Alkaline phosphatase; male rats, 2 mg/kg i.p.
  increase in serum alkaline phosphatase activity: 29%
Alkaline phosphatase; male rats, 4 mg/kg body weight i.p., for three days
  Alkaline phosphatase: 28.6 KA units
Alkaline phosphatase; male rats, 4 mg/kg i.p.
  increase in serum alkaline phosphatase activity: 39%
[1]; 1 mg/kg body weight i.p.
  SGOT: 43.5 u/l
[1]; 2 mg/kg body weight i.p.
  SGOT: 46.6 u/l
[1]; 2 mg/kg i.p., 3 days
  Increased activity of aspartate aminotransferase: 26%
[2]; 1 mg/kg body weight i.p.
  SGPT: 43.0 u/l
[2]; 2 mg/kg body weight i.p.
  SGPT: 46.0 u/l
[2]; 2 mg/kg i.p., 3 days
  Increased activity of alanine aminotransferase: 14%
Serum cholinesterase; 1 mg/kg body weight i.p.
  Serum cholinesterase: 1343 u/l
Serum cholinesterase; 1 mg/kg i.p.
  depression of acetyl cholinesterase activity: 46%
Serum cholinesterase; 2 mg/kg body weight i.p.
  Serum cholinesterase: 1193 u/l
Serum cholinesterase; 2 mg/kg i.p.
  depression of acetyl cholinesterase activity: 52%
Red cell ChE
  effect on red cell ChE: no cumulative effect
[3]
  pesticide toxicity category: category-1
